From ChEMBL document CHEMBL1134342, “Current and novel approaches to the drug treatment of schizophrenia” (J Med Chem, 2001)
One block for each compound: values may come before it. Active and inactive are the calls of the source. The calls are words filed in the database; no cut-off is given here.

Tests used:
[1] = Oral bioavailability was determined in rats and rhesus monkey; format: ADME, organism-based; conditions: eutheria, in vivo
[2] = Brain/Plasma AUC ratio was determined after oral administration of 50 mg/kg; format: ADME, organism-based; design: dose 50 mg/kg, route oral; conditions: brain and plasma
Mus musculus [3] = test: Antagonizing amphetamine induced hyperlocomotion in mice was determined after (ip) administration; format: functional
Mus musculus [4] = test: Antagonizing amphetamine induced hyperlocomotion in mice was determined after […] administration; format: functional
D(4) dopamine receptor = biological target: T1, D(4) dopamine receptor (Homo sapiens, UniProt P21917)
T1 sequence (P21917 whole entry): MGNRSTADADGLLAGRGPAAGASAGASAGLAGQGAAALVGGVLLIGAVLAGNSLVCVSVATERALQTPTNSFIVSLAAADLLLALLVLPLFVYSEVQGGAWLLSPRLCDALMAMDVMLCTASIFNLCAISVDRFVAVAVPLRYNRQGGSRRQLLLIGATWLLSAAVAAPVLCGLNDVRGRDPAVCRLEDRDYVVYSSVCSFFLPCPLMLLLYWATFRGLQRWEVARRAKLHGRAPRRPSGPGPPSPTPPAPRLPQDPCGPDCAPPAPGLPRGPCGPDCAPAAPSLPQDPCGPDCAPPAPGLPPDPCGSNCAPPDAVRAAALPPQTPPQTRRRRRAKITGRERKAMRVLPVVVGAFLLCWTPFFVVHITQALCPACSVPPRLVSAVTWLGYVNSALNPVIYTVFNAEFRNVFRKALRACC

[5] = biological target: 5-hydroxytryptamine receptor 2A (Homo sapiens, UniProt P28223)
Description: Binding affinity for human 5-hydroxytryptamine 2A receptor

[6] = Half life period was determined in rat; format: ADME, organism-based; conditions: in vivo
[7] = Bioavailability in rat; format: ADME, organism-based; conditions: in vivo
[8] = Plasma half life period was determined in human; format: ADME, organism-based
Rattus norvegicus [9] = test: Block of mescaline induced head twitch in rat at 1 hour after peroral administration of compound; format: functional; conditions: po
Rattus norvegicus [10] = test: Block of mescaline induced head twitch in rat at 6 hour after peroral administration of compound; format: functional; conditions: po
Rodentia sp. [11] = test: Extrapyramidal liability by induction of catalepsy after oral administration of […] umol/kg; not effective; format: functional, organism-based
Rodentia sp. [12] = test: Motor impairment by impaired spontaneous locomotor activity after oral administration of […] umol/kg; not effective; format: functional, organism-based
Rodentia sp. [13] = test: EPS liability measured by blockade of stereotypy after oral administration of […] umol/kg; not effective; format: functional, organism-based
Rodentia sp. [14] = test: Antipsychotic potential by blockade of apomorphine disruption in PPI after (sc) administration; format: functional; conditions: read-out: MED
Rodentia sp. [15] = test: Antipsychotic potential by blockade of apomorphine or amphetamine hyperactivity after oral administration; format: functional
[16] = Binding affinity at sodium channels
[17] = Cmax was determined in rat after oral administration of 3 mg/kg; format: ADME, organism-based; design: dose 3 mg/kg, route oral; conditions: in vivo
Rodentia sp. [18] = test: Extrapyramidal liability by induction of catalepsy after a (sc) administration 80 umol/kg; not effective; format: functional, organism-based
Rodentia sp. [19] = test: Antipsychotic potential by inhibition of conditioned avoidance responding after a (sc) administration 40 umol/kg; not effective; format: functional, organism-based
Rodentia sp. [20] = test: Induction of catalepsy was determined after a (sc) administration; format: functional
Rodentia sp. [21] = test: Motor impairment by impaired rotarod performance after a (sc) administration; format: functional
Rodentia sp. [22] = test: Motor impairment by impaired spontaneous locomotor activity after a (sc) administration; format: functional
Rodentia sp. [23] = test: Antipsychotic potential by blockade of apomorphine or amphetamine hyperactivity after a (sc) administration; format: functional
[24] = biological target: Voltage-gated L-type calcium channel (Homo sapiens, UniProt O60840+Q01668+Q13698+Q13936); test: Percent inhibition of binding to calcium channel at 10 uM; format: protein assay
[25] = Percent inhibition of binding affinity for sodium channel at 10 uM
[26] = biological target: T2, 5-hydroxytryptamine receptor 1A (Homo sapiens, UniProt P08908); test: Binding affinity towards human 5-hydroxytryptamine 1 receptor
T2 sequence (P08908 whole entry): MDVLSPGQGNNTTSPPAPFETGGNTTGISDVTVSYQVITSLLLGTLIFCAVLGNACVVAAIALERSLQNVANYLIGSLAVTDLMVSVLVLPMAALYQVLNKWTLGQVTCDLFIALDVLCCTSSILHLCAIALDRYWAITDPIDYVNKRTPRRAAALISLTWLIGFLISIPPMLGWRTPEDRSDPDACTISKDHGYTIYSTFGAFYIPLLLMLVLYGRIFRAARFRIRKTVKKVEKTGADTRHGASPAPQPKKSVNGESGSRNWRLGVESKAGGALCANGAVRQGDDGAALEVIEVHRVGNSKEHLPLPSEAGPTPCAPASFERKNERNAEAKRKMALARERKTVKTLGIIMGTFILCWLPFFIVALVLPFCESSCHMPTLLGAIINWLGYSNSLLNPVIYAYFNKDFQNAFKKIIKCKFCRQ

[27] = biological target: T3, Muscarinic acetylcholine receptor M1 (Homo sapiens, UniProt P11229)
T3 sequence (P11229 whole entry): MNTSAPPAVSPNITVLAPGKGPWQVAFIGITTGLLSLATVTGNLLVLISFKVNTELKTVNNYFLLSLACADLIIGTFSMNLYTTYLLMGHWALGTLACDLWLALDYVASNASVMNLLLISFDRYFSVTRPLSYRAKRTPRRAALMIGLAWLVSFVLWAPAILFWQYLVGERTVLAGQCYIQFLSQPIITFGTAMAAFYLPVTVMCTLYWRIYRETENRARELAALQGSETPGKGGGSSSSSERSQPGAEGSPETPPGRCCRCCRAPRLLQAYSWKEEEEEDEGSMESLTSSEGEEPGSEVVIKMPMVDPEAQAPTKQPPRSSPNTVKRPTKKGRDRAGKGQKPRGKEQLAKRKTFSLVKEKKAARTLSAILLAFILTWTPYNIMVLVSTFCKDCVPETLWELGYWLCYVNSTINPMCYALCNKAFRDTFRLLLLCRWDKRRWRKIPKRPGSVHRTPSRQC
Description: Binding affinity towards human M1 receptor.

[28] = biological target: T4, Adrenergic receptor alpha-1 (Homo sapiens, UniProt P35348+P25100+P35368)
T4 sequence (P35348 whole entry): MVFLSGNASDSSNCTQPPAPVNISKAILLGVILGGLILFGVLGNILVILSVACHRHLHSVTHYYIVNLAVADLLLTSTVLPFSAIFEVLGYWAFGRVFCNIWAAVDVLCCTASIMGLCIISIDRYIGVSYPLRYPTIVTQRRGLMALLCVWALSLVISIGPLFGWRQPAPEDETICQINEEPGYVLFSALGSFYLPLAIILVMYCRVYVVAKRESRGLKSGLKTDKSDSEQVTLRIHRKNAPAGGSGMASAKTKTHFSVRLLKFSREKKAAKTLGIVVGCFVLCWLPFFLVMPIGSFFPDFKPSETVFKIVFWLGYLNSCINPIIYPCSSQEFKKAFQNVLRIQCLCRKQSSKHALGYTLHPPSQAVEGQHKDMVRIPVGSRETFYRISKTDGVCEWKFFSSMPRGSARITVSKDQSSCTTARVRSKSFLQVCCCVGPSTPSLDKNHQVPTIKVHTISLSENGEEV
T4 sequence (P25100 whole entry): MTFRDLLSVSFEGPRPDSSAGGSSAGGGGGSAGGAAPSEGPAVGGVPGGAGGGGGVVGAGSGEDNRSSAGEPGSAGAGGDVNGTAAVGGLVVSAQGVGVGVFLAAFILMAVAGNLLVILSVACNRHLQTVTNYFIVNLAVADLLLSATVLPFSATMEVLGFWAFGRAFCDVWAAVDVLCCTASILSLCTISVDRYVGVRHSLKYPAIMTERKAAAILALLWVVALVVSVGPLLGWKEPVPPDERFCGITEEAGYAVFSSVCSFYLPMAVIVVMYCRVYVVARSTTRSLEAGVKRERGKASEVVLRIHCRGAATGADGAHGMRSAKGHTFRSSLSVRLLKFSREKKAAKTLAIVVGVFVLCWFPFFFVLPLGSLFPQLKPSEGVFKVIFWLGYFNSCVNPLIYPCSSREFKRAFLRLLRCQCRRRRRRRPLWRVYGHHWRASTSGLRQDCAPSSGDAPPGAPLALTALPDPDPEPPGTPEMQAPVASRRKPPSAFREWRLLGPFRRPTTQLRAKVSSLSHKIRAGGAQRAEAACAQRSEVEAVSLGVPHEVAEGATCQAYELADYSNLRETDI
T4 sequence (P35368 whole entry): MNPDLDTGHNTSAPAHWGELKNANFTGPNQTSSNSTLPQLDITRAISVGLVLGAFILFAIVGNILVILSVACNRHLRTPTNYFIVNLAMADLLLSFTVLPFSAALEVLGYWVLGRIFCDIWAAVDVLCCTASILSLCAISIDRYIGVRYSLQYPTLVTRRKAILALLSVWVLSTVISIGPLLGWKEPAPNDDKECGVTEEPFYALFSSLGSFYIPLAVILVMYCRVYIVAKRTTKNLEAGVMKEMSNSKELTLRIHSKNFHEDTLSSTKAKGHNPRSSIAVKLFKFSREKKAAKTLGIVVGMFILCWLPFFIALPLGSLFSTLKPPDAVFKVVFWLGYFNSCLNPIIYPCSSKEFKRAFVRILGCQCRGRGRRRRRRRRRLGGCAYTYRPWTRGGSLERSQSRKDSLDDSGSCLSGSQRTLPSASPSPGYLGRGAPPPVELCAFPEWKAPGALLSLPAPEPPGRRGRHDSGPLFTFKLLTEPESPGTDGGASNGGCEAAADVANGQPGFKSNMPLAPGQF
Description: Binding affinity towards human alpha-1 adrenergic receptor

Rodentia sp. [29] = system: Rodentia sp.
Rodentia sp. [30] = system: Rodentia sp.; remark: listed apart in the source
Rodentia sp. [31] = system: Rodentia sp.; remark: listed apart in the source
Rodentia sp. [32] = system: Rodentia sp.; remark: listed apart in the source
Rodentia sp. [33] = system: Rodentia sp.; remark: listed apart in the source

5-hydroxytryptamine receptor 2A, sequence (P28223 whole entry): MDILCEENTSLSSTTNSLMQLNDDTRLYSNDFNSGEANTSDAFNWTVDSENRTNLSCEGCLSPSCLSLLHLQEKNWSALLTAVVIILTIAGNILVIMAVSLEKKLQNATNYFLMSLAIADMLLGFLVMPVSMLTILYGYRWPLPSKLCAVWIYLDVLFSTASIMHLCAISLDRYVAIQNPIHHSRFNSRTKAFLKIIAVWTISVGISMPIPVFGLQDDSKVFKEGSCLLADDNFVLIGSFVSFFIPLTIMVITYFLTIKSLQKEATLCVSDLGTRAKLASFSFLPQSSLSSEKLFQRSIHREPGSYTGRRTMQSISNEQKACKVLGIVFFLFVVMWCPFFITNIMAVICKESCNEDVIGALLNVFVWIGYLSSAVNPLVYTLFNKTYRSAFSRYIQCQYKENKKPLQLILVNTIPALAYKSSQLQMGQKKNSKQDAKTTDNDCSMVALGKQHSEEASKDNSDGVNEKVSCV

- bioavailability [1]: < 3%
- Kp [2]: < 0.13
SMILES: COc1cccc([C@H](O)C2CCN(CCc3ccc(F)cc3)CC2)c1O
- ED50 (Mus musculus [3]): 0.08 mg/kg
- ED50 (Mus musculus [4]): 0.62 mg/kg

- Ki (D(4) dopamine receptor): 3.5 nM
SMILES: O=C(c1ccc(F)cc1)C1CCN(CCn2c(=O)[nH]c3ccccc3c2=O)CC1 [KETANSERIN]

SMILES: OC(c1ccccc1)C1CCN(CCc2ccccc2)CC1 (configuration not stated) [GLEMANSERIN]
- Ki [5]: 2.5 nM

- half-life [6]: 2 h
- bioavailability [7]: 38%
SMILES: Cc1c(C2CCN(CCc3ccccc3)CC2)noc1-c1ccc(Cl)cc1

- half-life [8]: 6.6 h
SMILES: COc1cccc([C@H](O)C2CCN(CCc3ccc(F)cc3)CC2)c1OC [VOLINANSERIN]

- Ki (D(4) dopamine receptor): 2.9 nM
SMILES: O=S1(=O)c2cccc3cccc(c23)N1CCCN1CCN(c2ccc(F)cc2)CC1 [FANANSERIN]
- ED50 (Rattus norvegicus [9]): 0.99 mg/kg
- ED50 (Rattus norvegicus [10]): 2.4 mg/kg

SMILES: Fc1ccc(OC[C@@H]2CC[C@H]3CN(c4ncc(F)cn4)CCN3C2)cc1
- NE (Rodentia sp. [11]): inactive
- NE (Rodentia sp. [12]): inactive
- NE (Rodentia sp. [13]): inactive
- minimal effective dose (Rodentia sp. [14]): 18 mg/kg
- ED50 (Rodentia sp. [15]): 13 mg/kg

SMILES: c1ccc(N2CCN(Cc3c[nH]c4ccccc34)CC2)cc1
- IC50 [16]: > 10000 nM

- Ki [5]: 126 nM
SMILES: OC(c1ccc(F)cc1)C1CCN(CCCCc2ccccc2)CC1 (configuration not stated)

- Ki [5]: 9.6 nM
SMILES: O=C(c1ccccc1)C1CCN(CCc2ccccc2)CC1

SMILES: c1ccc(N2CCN(Cc3c[nH]c4ncccc34)CC2)cc1
- Cmax [17]: 18 ng/mL
- Ki (D(4) dopamine receptor): 1.9 nM

SMILES: c1ccc2c(c1)CC(CN1CCN(c3ccc4c(c3)OCCO4)CC1)C2
- NE (Rodentia sp. [18]): inactive
- NE (Rodentia sp. [19]): inactive
- ED50 (Rodentia sp. [20]): 80 mg/kg
- ED50 (Rodentia sp. [21]): 66 mg/kg
- ED50 (Rodentia sp. [22]): 40 mg/kg
- ED50 (Rodentia sp. [23]): 9 mg/kg

- half-life [6]: 1 h
- bioavailability [7]: 31%
- inhibition at 10 µM [24]: 58%
- inhibition [25]: 33%
- Ki (D(4) dopamine receptor): 4.3 nM
SMILES: Clc1ccccc1CCN1CCN(c2[nH]nc3c2CCc2ccccc2-3)CC1

- Ki [5]: 5.3 nM
SMILES: O=C(c1ccc(F)cc1)C1CCN(CCCCc2ccccc2)CC1

- Ki [26]: 37 nM
- Ki [27]: > 10000 nM
- Ki [28]: 1.9 nM
SMILES: O=C1Cc2cc(CCN3CCN(c4nsc5ccccc45)CC3)c(Cl)cc2N1 [ZIPRASIDONE]

- Ki (D(4) dopamine receptor): 6.8 nM
SMILES: NS(=O)(=O)c1ccc(N2CCN(CC[C@@H]3OCCc4ccccc43)CC2)cc1 [SONEPIPRAZOLE]
- minimal effective dose (Rodentia sp. [14]): 30 mg/kg
- NE (Rodentia sp. [29]): inactive
- NE (Rodentia sp. [30]): inactive
- NE (Rodentia sp. [31]): inactive
- NE (Rodentia sp. [32]): inactive
- NE (Rodentia sp. [33]): inactive

- Ki (D(4) dopamine receptor): 5.8 nM
SMILES: O=c1ccc2ccc(NCCNc3ccccc3)cc2o1

- half-life [6]: 1.1 h
- bioavailability [7]: 69%
SMILES: Cc1c(-c2ccccc2)[nH]c(=O)n1C1CCN(Cc2cccc(C#N)c2)CC1
